The source of these data is US20050119305A1, “Il-6 production inhibitors” (priority 2001, published 2005).

pIC50: −log10 of the molar value.

The assay has as its system IL-6 production from A549 cells. The assay can be described thus: Inhibitory activity on IL-6 production from A549 cells (TNF-α stimulated, ELISA). Particulars: A549 cells (human lung epithelial cell line), TNF-α stimulation, 24 hours incubation, IL-6 in supernatant by ELISA; read-out: 50% inhibitory concentration (IC50) on IL-6 production. In kind it is cell-based. As to the method:
According to following experiments, it is confirmed that the compound of the present invention has an inhibitory activity on IL-6 production. • (1) The Measurement of an Inhibitory Activity on IL-6 Production from A549 Cells Method:
1.5×10^4 of A549 cells (human lung epithelial cell line) were suspended in 100 μL of Dulbecco's Modified Eagle Medium (DMEM) containing 0.5% fetal bovine serum (abbreviated as FBS) and incubated for a day and night in 96 well-microplate. 20 μL of the test compound dissolved in dimethylsulfoxide (DMSO) at various concentrations and 80 μl of tumor necrosis factor-α (TNF-α (Genzyme Co., cat. No. TNF-H)) dissolved in serum-free DMEM at the concentration of 12.5 ng/mL were added thereto. After the incubation for 24 hours, the supernatant (100 μL) was collected to measure the amount of IL-6 being produced using enzyme linked immuno […] assay (ELISA) (R&D Systems Co., cat. No. D6050). Then the inhibitory activity of the test compound was calculated and the 50% inhibitory concentration (IC50) was determined.

Regarding `O=C(CCCCCNC(=O)c1ccc(-c2ccccc2)cc1)NO` [Example 2], the pIC50 is 6.74.
